Each compound was assayed against full-length recombinant human FYN A (Homo sapiens (Human), UniProt P06241) (assay: ADP-Glo Kinase Assay of FYN kinase inhibition). Conditions: primary screen, initial compounds.
Sequence of full-length recombinant human FYN A (P06241 whole entry): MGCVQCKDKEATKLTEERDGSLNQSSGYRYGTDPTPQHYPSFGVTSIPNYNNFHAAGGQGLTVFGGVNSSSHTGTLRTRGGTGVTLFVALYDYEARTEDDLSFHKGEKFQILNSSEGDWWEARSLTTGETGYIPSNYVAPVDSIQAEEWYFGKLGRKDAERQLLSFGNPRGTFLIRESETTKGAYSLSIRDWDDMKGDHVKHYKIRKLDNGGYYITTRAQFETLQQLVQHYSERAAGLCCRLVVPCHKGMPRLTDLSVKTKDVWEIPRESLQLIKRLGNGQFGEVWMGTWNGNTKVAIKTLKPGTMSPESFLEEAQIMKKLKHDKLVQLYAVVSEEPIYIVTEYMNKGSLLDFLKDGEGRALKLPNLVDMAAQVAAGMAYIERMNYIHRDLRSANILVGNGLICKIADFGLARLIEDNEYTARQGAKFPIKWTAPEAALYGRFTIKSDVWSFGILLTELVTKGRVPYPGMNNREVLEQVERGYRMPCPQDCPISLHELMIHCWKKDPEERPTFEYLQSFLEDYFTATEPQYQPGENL
Format: biochemical
Procedure, shortened: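 ADP-Glo read-out of peptide phosphorylation after 90 min RT with 12.5 pmol ATP and 100 pg 12-mer substrate. Enzyme was N-GST full-length human FYN A from insect cells, 3 pg, pre-incubated 30 min with compound, 10 points from 10 μM top, 3-fold steps; IC50 from curve.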
`CN(C)CCNC(=O)c1cccc(-c2cnc3ccc(-c4cccc(Oc5ccccc5)c4)nn23)c1` [Compound 470, N-(2-dimethylamino-ethyl)-3-[6-(3-phenoxyphenyl)imidazo[1,2-b]pyridazin-3-yl]benzamide] gave an IC50 of 19.2 µM.
With `Oc1cccc(-c2cnc3ccc(C4CC4)nn23)c1` [Compound 471, 3-(6-cyclo-propylimidazo[1,2-b]pyridazin-3-yl)phenol] the IC50 was 1.89 µM.
`COc1cc(-c2cnc3ccc(-c4cccc(F)c4)nn23)ccc1O` [Compound 472, 4-[6-(3-fluoro-phenyl)imidazo [1,2-b]pyridazin-3-yl]-2-methoxy-phenol] was tested, and the IC50 was 0.281 µM.
For `COc1cncc(-c2cnc3ccc(Cc4ccc(F)cc4)nn23)c1` [Compound 473, 6-[(4-fluoro-phenyl)methyl]-3-(5-methoxy-3-pyridyl)imidazo [1,2-b]pyridazine], the IC50 was 4.42 µM.
In the case of `O=C(NCCO)c1cccc(-c2ccc3ncc(-c4ccc(CO)cc4)n3n2)c1` [Compound 475, N-(2-hydroxyethyl)-3-[3-[4-(hydroxymethyl)phenyl]imidazo [1,2-b]pyridazin-6-yl]benzamide], the IC50 is reported as 2.14 µM.
`COc1cc(-c2cnc3ccc(-c4cccc(C(N)=O)c4)nn23)ccc1O` [Compound 476, 3-[3-(4-hydroxy-3-methoxy-phenyl)imidazo [1,2-b]pyridazin-6-yl]benzamide] showed an IC50 of 0.223 µM.
In the case of `Cc1cccc(Cc2ccc3ncc(-c4cnn(C)c4)n3n2)c1` [Compound 477, 3-(1-methylpyrazol-4-yl)-6-(m-tolylmethyl) imidazo[1,2-b]pyridazine], the IC50 is reported as 1.8 µM.
`CC(=O)c1cccc(-c2cnc3ccc(-c4cccc(C(=O)NCCO)c4)nn23)c1` [Compound 478, 3-[3-(3-acetylphenyl)imidazo[1,2-b]pyridazin-6-yl]-N-(2-hydroxyethyl) benzamide] gave an IC50 of 0.629 µM.
`OCc1ccc(-c2cnc3ccc(Cc4ccccc4)nn23)cc1` [Compound 479, [4-(6-benzylimidazo [1,2-b]pyridazin-3-yl)phenyl] methanol] was tested, and the IC50 was 3.23 µM.
`COc1cc(-c2cnc3ccc(Cc4ccc(F)cc4)nn23)ccc1O` [Compound 480, 4-[6-[(4-fluorophenyl)methyl]imidazo [1,2-b]pyridazin-3-yl]-2-methoxy-phenol] showed an IC50 of 2.09 µM.
In the case of `Cn1cc(-c2cnc3ccc(Cc4ccc(F)cc4)nn23)cn1` [Compound 481, 6-[(4-fluorophenyl)methyl]-3-(1-methylpyrazol-4-yl)imidazo [1,2-b]pyridazine], the IC50 is reported as 1.3 µM.
`O=C(NCCO)c1cccc(-c2ccc3ncc(-c4cccc(Cl)c4)n3n2)c1` [Compound 483, 3-[3-(3-chlorophenyl)imidazo[1,2-b]pyridazin-6-yl]-N-(2-hydroxyethyl) benzamide] was tested, and the IC50 was 30 µM.
Work on `Cc1cccc(Cc2ccc3ncc(-c4cccc(C(N)=O)c4)n3n2)c1` [Compound 484, 3-[6-(m-tolylmethyl)imidazo[1,2-b]pyridazin-3-yl]benzamide] yielded an IC50 of 2.17 µM.
With `CC(=O)c1cccc(-c2cnc3ccc(Cc4ccccc4)nn23)c1` [Compound 485, 1-[3-(6-benzylimidazo [1,2-b]pyridazin-3-yl)phenyl] ethanone] the IC50 was 3.97 µM.
With `Nc1ccc(-c2cnc3ccc(Cc4ccccc4)nn23)cn1` [Compound 486, 5-(6-benzylimidazo [1,2-b]pyridazin-3-yl)pyridin-2-amine] the IC50 was 3.64 µM.
`CN(C)CCNC(=O)c1cccc(-c2cnc3ccc(-c4ccoc4)nn23)c1` [Compound 487, N-(2-dimethylamino-ethyl)-3-[6-(3-furyl)imidazo [1,2-b]pyridazin-3-yl]benzamide] gave an IC50 of 3.88 µM.
For `CNC(=O)c1cccc(-c2ccc3ncc(-c4ccc(CO)cc4)n3n2)c1` [Compound 488, 3-[3-[4-(hydroxymethyl)phenyl]imidazo [1,2-b]pyridazin-6-yl]-N-methyl-benzamide], the IC50 was 14.9 µM.
In the case of `COc1ccccc1-c1n[nH]c2nccc(-c3ccc(N4CCOCC4)cc3)c12` [Compound 489, 4-[4-[3-(2-methoxyphenyl)-1H-pyrazolo[3,4-b]pyridin-4-yl]phenyl] morpholine], the IC50 is reported as 1.39 µM.
In the case of `COc1ccccc1-c1n[nH]c2nccc(-c3ccc(F)c(Cl)c3)c12` [Compound 490, 4-(3-chloro-4-fluoro-phenyl)-3-(2-methoxy-phenyl)-1H-pyrazolo[3,4-b]pyridine], the IC50 is reported as 1.28 µM.
`COc1ccc(-c2ccnc3[nH]nc(-c4ccccc4OC)c23)cn1` [Compound 491, 3-(2-methoxyphenyl)-4-(6-methoxy-3-pyridyl)-1H-pyrazolo[3,4-b]pyridine] was tested, and the IC50 was 2.93 µM.
Work on `COc1ncc(-c2ccnc3[nH]nc(-c4ccccc4OC)c23)cn1` [Compound 492, 3-(2-methoxyphenyl)-4-(2-methoxy-pyrimidin-5-yl)-1H-pyrazolo[3,4-b]pyridine] yielded an IC50 of 6.43 µM.
In the case of `CN(C)C(=O)c1ccc(-c2ccnc3[nH]nc(-c4cccc(F)c4)c23)cc1` [Compound 493, 4-[3-(3-fluorophenyl)-1H-pyrazolo[3,4-b]pyridin-4-yl]-N,N-dimethyl-benzamide], the IC50 is reported as 3.86 µM.
`CN(C)C(=O)c1ccc(-c2ccnc3[nH]nc(-c4ccsc4)c23)cc1` [Compound 494, N,N-dimethyl-4-[3-(3-thienyl)-1H-pyrazolo[3,4-b]pyridin-4-yl]benzamide] was tested, and the IC50 was 11.2 µM.
`CC(=O)Nc1ccc(-c2ccnc3[nH]nc(C4CC4)c23)cc1` [Compound 495, N-[4-(3-cyclopropyl-1H-pyrazolo[3,4-b]pyridin-4-yl)phenyl] acetamide] was tested, and the IC50 was 8.89 µM.
For `Nc1cccc(-c2ccnc3[nH]nc(-c4ccncc4)c23)c1` [Compound 496, 3-[3-(4-pyridyl)-1H-pyrazolo[3,4-b]pyridin-4-yl]aniline], the IC50 was 18 µM.
`OCc1ccc(-c2ccnc3[nH]nc(-c4cccc(F)c4)c23)cc1` [Compound 497] showed an IC50 of 3.88 µM.
With `COc1ccccc1-c1n[nH]c2nccc(-c3ccsc3)c12` [Compound 498, 3-(2-methoxyphenyl)-4-(3-thienyl)-1H-pyrazolo[3,4-b]pyridine] the IC50 was 2.67 µM.
`COc1cc(-c2n[nH]c3nccc(-c4ccc(NC(C)=O)cc4)c23)cc(OC)c1OC` [Compound 499, N-[4-[3-(3,4,5-trimethoxy-phenyl)-1H-pyrazolo[3,4-b]pyridin-4-yl]phenyl] acetamide] showed an IC50 of 2.02 µM.
With `COc1ccccc1-c1n[nH]c2nccc(/C=C/c3ccccc3)c12` [Compound 500, 3-(2-methoxyphenyl)-4-[(E)-styryl]-1H-pyrazolo[3,4-b]pyridine] the IC50 was 1.13 µM.
`COc1ccccc1-c1n[nH]c2nccc(-c3cccc(F)c3)c12` [Compound 501, 4-(3-fluorophenyl)-3-[2-methoxy-phenyl)-1H-pyrazolo[3,4-b]pyridine] was tested, and the IC50 was 1.35 µM.
With `COc1ccccc1-c1n[nH]c2nccc(-c3ccc(C(N)=O)cc3)c12` [Compound 502, 4-[3-(2-methoxyphenyl)-1H-pyrazolo[3,4-b]pyridin-4-yl]benzamide] the IC50 was 1.48 µM.
Compound `OCc1ccc(-c2ccnc3[nH]nc(-c4ccccc4)c23)cc1` [Compound 503, [4-(3-phenyl-1H-pyrazolo[3,4-b]pyridin-4-yl)phenyl] methanol] has an IC50 of 7.11 µM.
`c1ccc(-c2n[nH]c3nccc(-c4cn[nH]c4)c23)cc1` [Compound 504, 3-phenyl-4-(1H-pyrazol-4-yl)-1H-pyrazolo[3,4-b]pyridine] showed an IC50 of 0.852 µM.
`COc1cc(-c2n[nH]c3nccc(-c4ccc(C(C)C)cc4)c23)cc(OC)c1OC` [Compound 505, 4-(4-isopropylphenyl)-3-(3,4,5-trimethoxy-phenyl)-1H-pyrazolo[3,4-b]pyridine] gave an IC50 of 20.9 µM.
In the case of `Clc1cccc(-c2ccnc3[nH]nc(C4CC4)c23)c1` [Compound 506, 4-(3-chlorophenyl)-3-cyclopropyl-1H-pyrazolo[3,4-b]pyridine], the IC50 is reported as 30 µM.
For `COc1ccccc1-c1n[nH]c2nccc(-c3cccc(C(=O)NCCN(C)C)c3)c12` [Compound 507, N-(2-dimethylamino-ethyl)-3-[3-(2-methoxyphenyl)-1H-pyrazolo[3,4-b]pyridin-4-yl]benzamide], the IC50 was 4.85 µM.
`COc1ccccc1-c1n[nH]c2nccc(-c3cccc(CO)c3)c12` [Compound 508, [3-[3-(2-methoxyphenyl)-1H-pyrazolo[3,4-b]pyridin-4-yl]phenyl] methanol] was tested, and the IC50 was 1.67 µM.
In the case of `NC(=O)c1ccc(-c2ccnc3[nH]nc(-c4cccc(F)c4)c23)cc1` [Compound 509, 4-[3-(3-fluorophenyl)-1H-pyrazolo[3,4-b]pyridin-4-yl]benzamide], the IC50 is reported as 2.05 µM.
For `NC(=O)c1ccc(-c2ccnc3[nH]nc(-c4ccc(Cl)cc4)c23)cc1` [Compound 510, 4-[3-(4-chlorophenyl)-1H-pyrazolo[3,4-b]pyridin-4-yl]benzamide], the IC50 was 5.71 µM.
`COc1cc(-c2n[nH]c3nccc(-c4cccc(O)c4)c23)cc(OC)c1OC` [Compound 511, 3-[3-(3,4,5-trimethoxy-phenyl)-1H-pyrazolo[3,4-b]pyridin-4-yl]phenol] gave an IC50 of 5.03 µM.
Work on `CC(=O)c1cccc(-c2ccnc3[nH]nc(C4CCNCC4)c23)c1` [Compound 512, 1-[3-[3-(4-piperidyl)-1H-pyrazolo[3,4-b]pyridin-4-yl]phenyl] ethanone] yielded an IC50 of 19.7 µM.
Work on `CC(=O)Nc1ccc(-c2ccnc3[nH]nc(-c4ccsc4)c23)cc1` [Compound 513, N-[4-[3-(3-thienyl)-1H-pyrazolo[3,4-b]pyridin-4-yl]phenyl] acetamide] yielded an IC50 of 4.87 µM.
Compound `COc1cc(-c2ccnc3[nH]nc(C4CCNCC4)c23)ccc1O` [Compound 514, 2-methoxy-4-[3-(4-piperidyl)-1H-pyrazolo[3,4-b]pyridin-4-yl]phenol] has an IC50 of 11.9 µM.
`COc1cc(-c2n[nH]c3nccc(-c4cccc(NS(C)(=O)=O)c4)c23)cc(OC)c1OC` [Compound 515, N-[3-[3-(3,4,5-trimethoxy-phenyl)-1H-pyrazolo[3,4-b]pyridin-4-yl]phenyl] methane-sulfonamide] showed an IC50 of 12.8 µM.
`COc1ccccc1-c1n[nH]c2nccc(-c3ccoc3)c12` [Compound 516, 4-(3-furyl)-3-(2-methoxyphenyl)-1H-pyrazolo[3,4-b]pyridine] showed an IC50 of 4.9 µM.
In the case of `Oc1cccc(-c2ccnc3[nH]nc(-c4ccc5c(c4)OCO5)c23)c1` [Compound 517, 3-[3-(1,3-benzodioxol-5-yl)-1H-pyrazolo[3,4-b]pyridin-4-yl]phenol], the IC50 is reported as 6.25 µM.

From patent US10688093B2, “Methods, compositions, and uses of novel Fyn kinase inhibitors” (priority 2015, dated 2020)
